Results taken from paper PMC8815882, “Screening the pandemic response box identified benzimidazole carbamates, Olorofim and ravuconazole as promising drug candidates for the treatment of eumycetoma” (PLoS Neglected Tropical Diseases, 2022).
Where two headings read alike, the source gives them in different places.

Test system: M. mycetomatis genome strain MM55
Test: CLSI M38-A2 based in vitro susceptibility screening (XTT or resazurin), growth at fixed concentration
Format: cell-based, Madurella mycetomatis
Conditions: Madurella mycetomatis; for Percent fungal survival at 100 µM: read-out: Percentage survival at 100um, 100 uM A (second replicate column)
[1] = mean of three replicates, read-out: Percentage survival at 25um, 25 uM mean
[2] = replicate A, read-out: Percentage survival at 25um, 25 um A
[3] = replicate B, read-out: Percentage survival at 25um, 25 uM B
[4] = replicate C, read-out: Percentage survival at 25um, 25 uM C
[5] = mean of three replicates, read-out: Percentage survival at 100um, 100 uM mean
[6] = replicate 1, read-out: Percentage survival at 100um, 100 uM A (first replicate column)
[7] = replicate 3, read-out: Percentage survival at 100um, 100 uM A (third replicate column)
[8] = mean, read-out: Percentage survival at 25um, 25 uM mean
[9] = mean, read-out: Percentage survival at 100um, 100 uM mean
[10] = replicate (first column), read-out: Percentage survival at 100um, 100 uM A
[11] = replicate (second column), read-out: Percentage survival at 100um, 100 uM A
[12] = replicate (third column), read-out: Percentage survival at 100um, 100 uM A
[13] = mean of replicates, read-out: Percentage survival at 25um, 25 uM mean
[14] = mean of replicates, read-out: Percentage survival at 100um, 100 uM mean
[15] = replicate 1, read-out: Percentage survival at 100um, 100 uM A
[16] = replicate 2, read-out: Percentage survival at 100um, 100 uM A
[17] = replicate 3, read-out: Percentage survival at 100um, 100 uM A

C[C@H](NC(CC(=O)c1ccccc1C(F)(F)F)C(=O)O)c1ccccc1 (stereo partly shown) [MMV1579778]
activity at 25 µM [1]: 93.5%
activity at 25 µM [2]: 98.1%
activity at 25 µM [3]: 92%
activity at 25 µM [4]: 90.5%
activity at 100 µM [5]: 87.3%
activity at 100 µM [6]: 91.1%
Percent fungal survival at 100 µM (replicate 2): 82.8%
activity at 100 µM [7]: 88.1%

O=C(NC(=O)N1CCCc2ccccc21)c1cccc(Cl)c1 [MMV1782351]
activity at 25 µM [8]: 92%
activity at 25 µM [2]: 96.8%
activity at 25 µM [3]: 101%
activity at 25 µM [4]: 78.3%
activity at 100 µM [9]: 75.7%
activity at 100 µM [10]: 73.9%
activity at 100 µM [11]: 74.5%
activity at 100 µM [12]: 78.6%

C=C[C@]1(C)C[C@@H](OC(=O)CS[C@@H]2C[C@H]3CC[C@@H](C2)N3C)[C@]2(C)[C@H](C)CC[C@]3(CCC(=O)[C@H]32)[C@@H](C)[C@@H]1O [MMV1633674]
activity at 25 µM [13]: 89.3%
activity at 25 µM [2]: 84.6%
activity at 25 µM [3]: 97.9%
activity at 25 µM [4]: 85.5%
activity at 100 µM [14]: 48.4%
activity at 100 µM [15]: -3.26%
activity at 100 µM [16]: 61.3%
activity at 100 µM [17]: 87%

CC(=N)N1CC[C@H](SC2=C(C(=O)O)N3C(=O)[C@@H]([C@@H](C)O)[C@H]3C2)C1 [MMV1582382]
activity at 25 µM [13]: 78.4%
activity at 25 µM [2]: 77.3%
activity at 25 µM [3]: 85.2%
activity at 25 µM [4]: 72.8%
activity at 100 µM [14]: 83.2%
activity at 100 µM [15]: 76.4%
activity at 100 µM [16]: 82.9%
activity at 100 µM [17]: 90.3%

COc1cc(NC(=O)CN2C(=O)NC(c3ccccc3)(c3ccccc3)C2=O)cc(OC)c1 [MMV1578572]
activity at 25 µM [8]: 72%
activity at 25 µM [2]: 95.2%
activity at 25 µM [3]: 47.1%
activity at 25 µM [4]: 73.6%
activity at 100 µM [9]: 79.3%
activity at 100 µM [10]: 83.4%
activity at 100 µM [11]: 65.2%
activity at 100 µM [12]: 89.3%

CCCCc1ccc(-c2nc(C)c(C(=O)OC)s2)cc1 [MMV1634392]
activity at 25 µM (mean of replicates, MM55, read-out: Percentage survival at 25um, 25 uM mean): 77.2%
activity at 25 µM (replicate A, MM55, read-out: Percentage survival at 25um, 25 um A): 84.6%
activity at 25 µM (replicate B, MM55, read-out: Percentage survival at 25um, 25 uM B): 81.9%
activity at 25 µM (replicate C, MM55, read-out: Percentage survival at 25um, 25 uM C): 65.1%
activity at 100 µM (mean of replicates, MM55, read-out: Percentage survival at 100um, 100 uM mean): 65.3%
activity at 100 µM (replicate 1, MM55, read-out: Percentage survival at 100um, 100 uM A): 48.8%
activity at 100 µM (replicate 2, MM55, read-out: Percentage survival at 100um, 100 uM A): 54.8%
activity at 100 µM (replicate 3, MM55, read-out: Percentage survival at 100um, 100 uM A): 92.3%

CS(=O)(=O)c1ccc(Oc2ccc(Cl)cc2)cc1 [MMV1634404]
activity at 25 µM [1]: 85.3%
activity at 25 µM [2]: 90%
activity at 25 µM [3]: 98%
activity at 25 µM [4]: 68%
activity at 100 µM [5]: 50.7%
activity at 100 µM [6]: 44.2%
Percent fungal survival at 100 µM (replicate 2): 49%
activity at 100 µM [7]: 59%

CCCCCOc1ccc(/C=C2\Oc3c(ccc(O)c3O)C2=O)c(O)c1 [MMV1580851]
activity at 25 µM (mean of three, M. mycetomatis MM55, read-out: Percentage survival at 25um, 25 uM mean): 102%
activity at 25 µM (replicate A, M. mycetomatis MM55, read-out: Percentage survival at 25um, 25 um A): 93.6%
activity at 25 µM (replicate B, M. mycetomatis MM55, read-out: Percentage survival at 25um, 25 uM B): 82.3%
activity at 25 µM (replicate C, M. mycetomatis MM55, read-out: Percentage survival at 25um, 25 uM C): 129%
activity at 100 µM (mean of three, M. mycetomatis MM55, read-out: Percentage survival at 100um, 100 uM mean): 90%
activity at 100 µM (replicate 1, M. mycetomatis MM55, read-out: Percentage survival at 100um, 100 uM A (first replicate column)): 82.6%
Percent fungal survival at 100 µM (replicate 2, M. mycetomatis MM55): 98.4%
activity at 100 µM (replicate 3, M. mycetomatis MM55, read-out: Percentage survival at 100um, 100 uM A (third replicate column)): 89%

C[C@H]1[C@@H](c2cccc(C(F)(F)F)c2)OC(=O)N1C(=O)NCc1cncc2ccccc12 [MMV1593533]
activity at 25 µM [8]: 50%
activity at 25 µM [2]: 54.1%
activity at 25 µM [3]: 42.5%
activity at 25 µM [4]: 53.3%
activity at 100 µM [9]: 36.1%
activity at 100 µM [10]: 6.17%
activity at 100 µM [11]: 44.6%
activity at 100 µM [12]: 57.6%

Nc1cnn(C2OC(CO)C(O)C2O)c(=O)n1 (stereo not shown) [MMV1580495]
activity at 25 µM [1]: 87.3%
activity at 25 µM [2]: 82%
activity at 25 µM [3]: 95.9%
activity at 25 µM [4]: 84%
activity at 100 µM (first replicate column, read-out: Percentage survival at 100um, 100 uM A): 88.8%
activity at 100 µM [5]: 82%
activity at 100 µM (second replicate column, read-out: Percentage survival at 100um, 100 uM A): 84.2%
activity at 100 µM (third replicate column, read-out: Percentage survival at 100um, 100 uM A): 72.9%

Cc1c(OCC(F)(F)F)ccnc1C[S+]([O-])c1nc2ccccc2[nH]1 (stereo not shown) [MMV001438]
activity at 25 µM [1]: 95.7%
activity at 25 µM [2]: 79.3%
activity at 25 µM [3]: 123%
activity at 25 µM [4]: 84.8%
activity at 100 µM [5]: 55.3%
activity at 100 µM [6]: 41.9%
Percent fungal survival at 100 µM (replicate 2): 52.1%
activity at 100 µM [7]: 71.8%
